Results reported in patent publication US20240116867A1, “ALKYL […] AMMONIUM T[…] THEIR […] USES” (CAAMTECH, INC., priority 2019, published 2024).
Read-outs that look alike come from different tables or passages of the source.

Columns and labels:
5-HT1A [1] = biological target: T1, 5-HT1A (Homo sapiens, UniProt P08908); experiment: Radioligand binding, 5-HT1A ([3H] 8-OH-DPAT), membrane homogenates of HEK-293 cells; settings: Table 5
T1 construct: host or cells: HEK-293
T1 sequence (P08908 1-422): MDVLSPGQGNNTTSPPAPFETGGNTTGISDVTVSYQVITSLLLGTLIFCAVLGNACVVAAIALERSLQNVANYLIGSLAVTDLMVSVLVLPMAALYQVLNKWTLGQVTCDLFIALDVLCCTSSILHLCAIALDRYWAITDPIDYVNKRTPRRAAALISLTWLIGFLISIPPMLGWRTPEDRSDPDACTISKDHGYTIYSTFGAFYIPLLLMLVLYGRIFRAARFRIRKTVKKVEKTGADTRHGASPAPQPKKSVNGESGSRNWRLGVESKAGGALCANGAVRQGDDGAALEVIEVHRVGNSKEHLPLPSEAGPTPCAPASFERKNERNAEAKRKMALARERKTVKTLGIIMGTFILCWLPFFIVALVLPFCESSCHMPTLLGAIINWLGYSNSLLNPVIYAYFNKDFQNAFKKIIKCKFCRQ
Method: (§1) Cellular assays were performed by Eurofins CEREP SA, Celle-Lévescault, France. All receptors were separately expressed in HEK-293 cells. Cell membrane homogenates (30 μg protein) are incubated for 60 min (5-HT1A, 5-HT2A, 5-HT2B) or 120 min (5-HT3) at 22° C. with radiolabeled ligand in the absence or presence of the test compound in a buffer containing 50 mM Tris-HCl (pH 7.4), 5 mM MgCl2, 10 μM pargyline and 0.1% ascorbic acid. For 5-HT3, the buffer contained 50 mM Tris-HCl (pH 7.4), 5 mM MgCl2, and 1 mM EDTA. Binding was reported as the Ki for the inhibition of binding of well-characterized orthosteric ligands. The ligands used for each receptor were: • 5-HT1A: [^3H] 8-OH-DPAT • 5-HT2A: [^125] […]
(§2) Nonspecific binding was determined in the presence of 1 μM unlabeled ligand listed above. […] The filters were dried then counted for radioactivity in a scintillation counter (Topcount, Packard) using a scintillation cocktail (Microscint 0, Packard). The results are expressed as a percent inhibition of the control radioligand specific binding.
(§3) The IC50 values and Hill coefficients (nH) were determined by non-linear regression analysis of the competition curves generated with mean replicate values using Hill equation curve fitting Y=D+[(A−D)/(1+(C/C50)^nH)] where Y=specific binding, A=left asymptote of the curve, D=right asymptote of the curve, C=compound concentration, C50=IC50, and nH=slope factor. […]

5-HT2A [2] = biological target: T2, 5-HT2A (Homo sapiens, UniProt P28223); experiment: Radioligand binding, 5-HT2A ([125] (±)DOI), membrane homogenates of HEK-293 cells; settings: Table 5
T2 construct: host or cells: HEK-293
T2 sequence (P28223 whole entry): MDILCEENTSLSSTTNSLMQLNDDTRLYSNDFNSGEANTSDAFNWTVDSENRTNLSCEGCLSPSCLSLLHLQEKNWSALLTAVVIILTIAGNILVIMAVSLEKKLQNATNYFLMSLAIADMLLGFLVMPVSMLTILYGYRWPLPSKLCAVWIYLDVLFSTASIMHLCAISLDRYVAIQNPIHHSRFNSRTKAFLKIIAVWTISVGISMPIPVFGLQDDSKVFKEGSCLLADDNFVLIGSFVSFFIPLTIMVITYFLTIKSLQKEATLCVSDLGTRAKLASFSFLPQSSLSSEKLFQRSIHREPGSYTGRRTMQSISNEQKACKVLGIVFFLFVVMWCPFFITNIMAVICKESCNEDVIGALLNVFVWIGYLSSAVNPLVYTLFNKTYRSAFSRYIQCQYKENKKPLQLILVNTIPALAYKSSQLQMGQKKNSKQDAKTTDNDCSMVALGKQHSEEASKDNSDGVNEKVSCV
Method: as §1, §2, §3

5-HT3 [3] = biological target: T3, 5-HT3 (Homo sapiens, UniProt P46098); experiment: Radioligand binding, 5-HT3 ([3H] BRL 43694), membrane homogenates of HEK-293 cells; settings: Table 5
T3 construct: host or cells: HEK-293
T3 sequence (P46098 24-478): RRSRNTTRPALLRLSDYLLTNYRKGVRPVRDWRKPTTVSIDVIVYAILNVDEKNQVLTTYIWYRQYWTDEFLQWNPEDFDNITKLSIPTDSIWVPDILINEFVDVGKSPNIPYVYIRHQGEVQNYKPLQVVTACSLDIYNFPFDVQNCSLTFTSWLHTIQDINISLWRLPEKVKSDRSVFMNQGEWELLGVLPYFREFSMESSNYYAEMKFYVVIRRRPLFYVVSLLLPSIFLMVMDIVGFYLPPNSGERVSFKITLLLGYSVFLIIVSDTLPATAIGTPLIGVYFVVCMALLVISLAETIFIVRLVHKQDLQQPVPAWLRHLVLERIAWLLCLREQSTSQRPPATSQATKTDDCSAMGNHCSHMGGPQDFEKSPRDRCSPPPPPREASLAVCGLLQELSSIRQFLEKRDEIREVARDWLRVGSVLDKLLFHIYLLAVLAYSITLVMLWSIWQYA
Method: as §1, §2, §3

5-HT2B [4] = biological target: T4, 5-HT2B (Homo sapiens, UniProt P41595); experiment: Radioligand binding, 5-HT2B ([125] (±)DOI), membrane homogenates of HEK-293 cells; design: host or cells: HEK-293; settings: Table 5
T4 sequence (P41595 whole entry): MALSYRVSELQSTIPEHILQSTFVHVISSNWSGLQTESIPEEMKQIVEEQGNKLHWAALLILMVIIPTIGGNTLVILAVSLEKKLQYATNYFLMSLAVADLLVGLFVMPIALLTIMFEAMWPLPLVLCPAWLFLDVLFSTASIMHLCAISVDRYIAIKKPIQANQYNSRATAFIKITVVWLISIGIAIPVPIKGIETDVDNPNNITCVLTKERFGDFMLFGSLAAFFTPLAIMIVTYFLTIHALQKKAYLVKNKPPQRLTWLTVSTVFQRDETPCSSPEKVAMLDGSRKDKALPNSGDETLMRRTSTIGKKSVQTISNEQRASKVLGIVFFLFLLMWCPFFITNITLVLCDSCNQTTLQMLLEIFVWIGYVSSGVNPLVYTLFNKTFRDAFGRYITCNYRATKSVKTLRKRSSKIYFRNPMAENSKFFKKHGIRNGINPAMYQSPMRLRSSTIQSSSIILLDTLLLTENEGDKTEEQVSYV
Method: as §1, §2, §3

5-HT1A [5] = biological target: T1, 5-HT1A; settings: cited from earlier work
5-HT2A [6] = biological target: T2, 5-HT2A; settings: cited from earlier work
5-HT3 [7] = biological target: T3, 5-HT3; settings: read-out: Inhibition constants (Ki) 5-HT3; comparison values marked ‡ (Roth et al.); cited from earlier work
5-HT2B [8] = biological target: T4, 5-HT2B; settings: comparison values (Roth et al.); cited from earlier work
[9] = comparison values (Roth et al.)

Structure (SMILES)	activity at 5-HT1A (in words) (5-HT1A [1])	activity at 5-HT2A (in words) (5-HT2A [2])	activity at 5-HT3 (in words) (5-HT3 [3])	activity at 5-HT2B (in words) (5-HT2B [4])	activity at 5-HT1A (in words) (5-HT1A [5]; [9])	activity at 5-HT2A (in words) (5-HT2A [6]; [9])	Ki (5-HT3 [7]) [µM]	activity at 5-HT2B (in words) (5-HT2B [8])	Ki (5-HT1A [5]; read-out: Inhibition constants (Ki) 5-HT1A, comparison values marked ‡ (Roth et al.)) [µM]	Ki (5-HT2A [6]; read-out: Inhibition constants (Ki) 5-HT2A, comparison values marked ‡ (Roth et al.)) [µM]
CC(=O)Oc1cccc2[nH]cc(CC[N+](C)(C)C)c12 [Example 4-AcO-TMTI, 4-Acetoxy-N,N,N-trimethyltryptammonium Iodide]	shows no activity	shows no activity	shows no activity	shows no activity						
C[N+](C)(C)CCc1c[nH]c2cccc(O)c12 [Example 4-HO-TMTI, 4-Hydroxy-N,N,N-trimethyltryptammonium Iodide]	shows activity	shows activity	no activity observed	shows activity						
CN(C)CCc1c[nH]c2cccc(O)c12 [Psilocin]					shows activity	shows activity	> 10	significantly more potent than 4-HO-TMTI		
CN(C)CCc1c[nH]c2cccc(OP(=O)(O)O)c12 [Psilocybin]							> 10		> 10	> 10
